Laboratory results as given in patent publication US20120076781A1, “METHODS OF TREATING CANCERS WITH HER3 ANTISENSE OLIGONUCLEOTIDES” (ENZON PHARMACEUTICALS, INC., priority 2009, published 2012).
Marks after values point to notes of the source that are not given here. In the oligonucleotide strings, read from the 5' end, every base follows the letter of its sugar. An asterisk marks phosphorothioate; unmarked linkages are phosphodiester. Other units and linkages are bracketed, terminal groups are in braces. A string of capitals states the bases alone. l = locked nucleic acid (LNA); [5mC] = 5-methylcytosine; d = 2'-deoxy (DNA)

Key:
human HER3 mRNA [1] = assay: Down-regulation of HER3 mRNA in transfected 15PC3 cells, real-time PCR; format: cell-based; conditions: 25 nM
Procedure: (§1) 15PC3: The human prostate cancer cell line 15PC3 was cultured in DMEM (Sigma)+10% fetal bovine serum (FBS)+2 mM Glutamax I+gentamicin (25 μg/ml).
(§2) The cells were treated with oligonucleotides using the cationic liposome formulation LipofectAMINE 2000 (Gibco) as transfection vehicle. Cells were seeded in 6-well cell culture plates (NUNC) and treated when 80-90% confluent. Oligomer concentrations ranged from 1 nM to 25 nM final concentration. Formulation of oligomer-lipid complexes was carried out essentially as described by the manufacturer using serum-free OptiMEM (Gibco) and a final lipid concentration of 5 μg/mL LipofectAMINE 2000. Cells were incubated at 37° C. for 4 hours and treatment was stopped by removal of oligomer-containing culture medium. Cells were washed and serum-containing medium was added. After oligomer treatment, cells were allowed to recover for 20 hours before they were harvested for RNA analysis.
(§3) Total RNA was extracted from cells transfected as described above and using the Qiagen RNeasy kit (Qiagen cat. no. 74104) according to the manufacturer's instructions. First strand synthesis was performed using Reverse Transcriptase reagents from Ambion according to the manufacturer's instructions.
(§4) For each sample 0.5 μg total RNA was adjusted to (10.8 μl) with RNase free H2O and mixed with 2 μl random decamers (50 μM) and 4 μl dNTP mix (2.5 mM each dNTP) and heated to 70° C. for 3 min after which the samples were rapidly cooled on ice. After cooling the samples on ice, 2 μl 10× Buffer RT, 1 μl MMLV Reverse Transcriptase (100 U/μl) and 0.25 μl RNase inhibitor (10 U/μl) was added to each sample, followed by incubation at 42° C. for 60 min, heat inactivation of the enzyme at 95° C. for 10 min, and then cooling the sample to 4° C.
(§5) The sample content of human HER3, EGFR and HER2 mRNA was quantified using the human HER3, EGFR and HER2 ABI Prism Pre-Developed TaqMan Assay Reagents (Applied Biosystems cat. no. Hs00951444_ml (HER3), Hs00193306_ml (EGFR) and Hs00170433_ml (HER2) according to the manufacturer's instructions.
(§6) Glyceraldehyde-3-phosphate dehydrogenase (GAPDH) mRNA quantity was used as an endogenous control for normalizing any variance in sample preparation. The sample content of human GAPDH mRNA was quantified using the human GAPDH ABI Prism Pre-Developed TaqMan Assay Reagent (Applied Biosystems cat. no. 4310884E) according to the manufacturer's instructions.
(§7) The cDNA from the first strand synthesis performed as described in Example 5 was diluted 2-20 times, and analyzed by real time quantitative PCR using Taqman 7500 FAST or 7900 FAST from Applied Biosystems. The primers and probe were mixed with 2× Taqman Fast Universal PCR master mix (2×) (Applied Biosystems Cat. #4364103) and added to 4 μl cDNA to a final volume of 10 μl. Each sample was analysed in duplicate. Assaying 2-fold dilutions of a cDNA that had been prepared on material purified from a cell line expressing the RNA of interest generated standard curves for the assays. Sterile H2O was used instead of cDNA for the no-template control. PCR program: 95° C. for 30 seconds, followed by 40 cycles of 95° C., 3 seconds, 60° C., 20-30 seconds. Relative quantities of target mRNA sequence were determined from the calculated Threshold cycle using the Applied Biosystems Fast System SDS Software Version 1.3.1.21. or SDS Software Version 2.3.
(§8) Oligonucleotides presented in Table 4 were evaluated for their potential to down-regulate HER3, EGFR and HER2 mRNA at concentrations of 1, 5 and 25 nM in 15PC3 cells (or HUH-7 as indicated by *) (see FIGS. 2, 3, 4 and 5). SEQ ID NOs: 235 and 236 were used as scrambled controls.
(§9) The data in Table 4 are presented as percentage down-regulation of mRNA relative to mock transfected cells at 25 nM. Lower-case letters represent DNA monomers, bold, upper-case letters represent β-D-oxy-LNA monomers. All cytosines in LNA monomers are 5-methylcytosines. Subscript “s” represents a phosphorothioate linkage.

human EGFR mRNA = assay: Down-regulation of EGFR mRNA in transfected 15PC3 cells, real-time PCR; format: cell-based; conditions: 25 nM
Procedure: as §1, §2, §3, §4, §5, §6, §7, §8, §9

human HER2 mRNA = assay: Down-regulation of HER2 mRNA in transfected 15PC3 cells, real-time PCR; format: cell-based; conditions: 25 nM
Procedure: as §1, §2, §3, §4, §5, §6, §7, §8, §9

Mouse HER3 mRNA = assay: HER3 mRNA knockdown in liver of nude mice bearing 15PC3 xenografts, qd x 5 (qRT-PCR); format: in vivo; conditions: i.v.
Procedure: (§10) To evaluate the knockdown efficacy of the HER3 oligomeric compounds in vivo, the female nude mice bearing 15PC3 xenografts developed by subcutaneous injection of 5×10^6 cells/mouse into the right axillary flank, were injected intravenously with the oligomers at various doses and injection schedules (i.e. single dose, qd, q3d, q4d). Scrambled oligomer SEQ ID NO: 236 served as a negative control. 24 hours after the last injection, the mice were euthanized and liver and tumor tissues were collected in RNAlater solution (Ambion). Total RNA was purified from the tissues and the levels of HER3 mRNA were determined by quantitative reverse transcription-real time PCR (qRT-PCR) using the QuantiTect Probe RT-PCR kit (Cat#: 204443; Qiagen). GAPDH mRNA served as an internal control.
(§11) 200 ng of total RNA was used in the PCR reaction. The data analyses were performed by using the ABI-7500 PCR Fast System included software.
(§12) Data in Table 5 are presented as % HER3 mRNA levels relative to saline treated controls in liver and tumor samples after i.v. dosing of animals on 5 consecutive days with oligonucleotides in the doses indicated.

human HER3 mRNA [2] = assay: HER3 mRNA knockdown in 15PC3 xenograft tumor in nude mice, qd x 5 (qRT-PCR); format: in vivo; conditions: 32.4 mg/kg, i.v., relative to saline controls
Procedure: as §10, §11, §12

HER3 mRNA [3] = assay: HER3 mRNA knockdown in 15PC3 xenograft tumor, different dosing cycle; format: in vivo, human; conditions: 32.4 x 4 mg/kg i.v., every third day
Procedure: as §10
(§13) The knockdown efficacy of oligomers was evaluated in vivo in nude mice bearing xenograft tumors derived from 15PC3 cells or A549 cells (NSCLC) or N87 cells (gastric carcinoma) using a similar protocol to the one described above in Example 11. Oligomers were administered by injection every third day in 2-4 doses. Tissues were harvested 3 or 4 days after the last injection.
(§14) Data in Tables 6 and 7 are presented as % HER3 mRNA or HIF-1 alpha mRNA relative to saline treated controls in liver and tumor samples after i.v. dosing of animals with the indicated oligomers.

HIF-1 alpha mRNA = HIF-1 alpha mRNA in 15PC3 xenograft tumor, different dosing cycle; format: in vivo, human; conditions: 32.4 x 4 mg/kg i.v., every third day
Procedure: as §10, §13, §14

HER3 mRNA [4] = assay: HER3 mRNA knockdown in liver of xenograft-bearing nude mice, different dosing cycle; format: in vivo, mouse
Procedure: as §10
(§15) The knockdown efficacy of oligomers was evaluated in vivo in nude mice bearing xenograft tumors derived from 15PC3 cells or A549 cells (NSCLC) or N87 cells (gastric carcinoma) using a similar protocol to the one described above in Example 11. […] Tissues were harvested 3 or 4 days after the last injection.
as §14

HER3 mRNA [5] = assay: HER3 mRNA knockdown in N87 (gastric carcinoma) xenograft tumor; format: in vivo, human; conditions: 25 mg/kg, q3d x 5, i.v.
Procedure: as §10, §15, §14

human HER3 mRNA [6] = assay: Down-regulation of HER3 mRNA in transfected HUH-7 cells, real-time PCR; format: cell-based; conditions: 25 nM, HUH-7 cells (indicated by *)
Procedure: HUH7: The human hepatocarcinoma cell line was cultured in DMEM (Sigma)+10% fetal bovine serum (FBS)+2 mM Glutamax I+gentamicin (25 μg/ml)+1× Non Essential Amino Acids.
The cells were treated with oligonucleotides using the cationic liposome formulation LipofectAMINE 2000 (Gibco) as transfection vehicle. Cells were seeded in 6-well cell culture plates (NUNC) and treated when 80-90% confluent. Oligomer concentrations ranged from 1 nM to 25 nM final concentration. Formulation of oligomer-lipid complexes was carried out essentially as described by the manufacturer using serum-free OptiMEM (Gibco) and a final lipid concentration of 5 μg/mL LipofectAMINE 2000. […]
as §5
Glyceraldehyde-3-phosphate dehydrogenase (GAPDH) mRNA quantity was used as an endogenous control for normalizing any variance in sample preparation. The sample content of human GAPDH mRNA was quantified using the human GAPDH ABI Prism Pre-Developed TaqMan Assay Reagent (Applied Biosystems cat. no. 4310884E) according to the manufacturer's instructions. […]

For “ASGSAScSaStScSaScStScStSgSGSTSG (antisense lA*lG*lA*dC*dA*dT*dC*dA*dC*dT*dC*dT*dG*lG*lT*lG) [SEQ ID NO: 172, β-D-oxy-LNA/DNA phosphorothioate gapmer antisense oligonucleotide targeting HER3]”, the “HER3: percentage down-regulation of mRNA relative to mock transfected cells” value (human HER3 mRNA [1]) was 84.2%, the “EGFR: percentage down-regulation of mRNA relative to mock transfected cells” value (human EGFR mRNA) was 86.2% and the “HER2: percentage down-regulation of mRNA relative to mock transfected cells” value (human HER2 mRNA) was 61%. For the same substance, the “HER3 mRNA Liver” value (Mouse HER3 mRNA; 9.7 mg/kg) was 12.2 ± 5.9 % of Sal ctrl, the “HER3 mRNA Liver” value (Mouse HER3 mRNA; 32.4 mg/kg) was 7.4 ± 5.2 % of Sal ctrl and the “HER3 mRNA Tumor” value (human HER3 mRNA [2]) was 78.1 ± 15.3%. For the same substance, the “Tumor HER3 mRNA relative to saline treated controls” value (HER3 mRNA [3]) was 107.3 ± 17%, the “Tumor Hif1A mRNA relative to saline treated controls” value (HIF-1 alpha mRNA) was 100.3 ± 7.5% and the “Liver HER3 mRNA relative to saline treated controls” value (HER3 mRNA [4]; 15PC3 xenograft mice, 32.4 x 4 mg/kg i.v., every third day) was 44.3 ± 10.6%.
In the case of “TSASGScScStStStSgSaScScStSCSTSC (antisense lT*lA*lG*dC*dC*dT*dT*dT*dG*dA*dC*dC*dT*l[5mC]*lT*l[5mC]) [SEQ ID NO: 249, reference compound]”, the “HER3 Liver” value (HER3 mRNA [4]; N87 xenograft mice, 25 mg/kg, q3d x 5, i.v.) is reported as 123 ± 4.5 % saline control and the “HER3 Tumor” value (HER3 mRNA [5]) is reported as 99.0 ± 8.9 % saline control.
“GSASCSaStScSaScStScStSgSgSTSGST (lG*lA*l[5mC]*dA*dT*dC*dA*dC*dT*dC*dT*dG*dG*lT*lG*lT; antisense) [SEQ ID NO: 196]” was tested, and the “HER3: percentage down-regulation of mRNA relative to mock transfected cells” value (human HER3 mRNA [6]) was 77.0%*.
